The source made the active and inactive calls.
Columns and labels:
[1] = target: Cystic fibrosis transmembrane conductance regulator/Golgi-associated PDZ and coiled-coil motif-containing protein (Homo sapiens, UniProt P13569+Q9HD26); test: CAL PDZ peptide-binding inhibitors, dose response, biochemical, fluorescence polarization, Cerulean-tagged CAL PDZ, cherry-picks (AID 504773)
[2] = target: G-protein coupled receptor 35 (Homo sapiens, UniProt Q9HC97); test: GPR35 antagonists blocking zaprinast-driven arrestin recruitment, primary screen, imaging, U2OS, beta-arrestin-GFP, zaprinast agonist (AID 2058); type: functional;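 further: antagonist potency meaning inhibition of agonist-induced arrestin redistribution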
Chain of G-protein coupled receptor 35 (Q9HC97 whole entry): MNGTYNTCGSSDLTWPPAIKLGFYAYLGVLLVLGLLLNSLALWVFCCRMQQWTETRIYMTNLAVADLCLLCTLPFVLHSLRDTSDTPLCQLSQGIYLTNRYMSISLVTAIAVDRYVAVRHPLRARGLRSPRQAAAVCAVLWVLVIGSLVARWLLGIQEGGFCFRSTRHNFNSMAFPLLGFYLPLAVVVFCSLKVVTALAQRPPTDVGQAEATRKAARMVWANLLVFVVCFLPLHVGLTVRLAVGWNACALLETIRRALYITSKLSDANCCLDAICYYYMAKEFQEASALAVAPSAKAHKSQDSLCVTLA

[3] = target: DNA damage-inducible transcript 3 protein (Mus musculus, UniProt P35639); type: functional, Cricetulus griseus
Chain of DNA damage-inducible transcript 3 protein (P35639 whole entry): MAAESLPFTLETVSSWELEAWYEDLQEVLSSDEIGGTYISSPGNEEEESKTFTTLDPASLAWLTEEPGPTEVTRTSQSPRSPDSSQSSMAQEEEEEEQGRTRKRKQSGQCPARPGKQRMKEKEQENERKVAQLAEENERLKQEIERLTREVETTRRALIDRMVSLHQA

[4] = target: X-box-binding protein 1 (Homo sapiens, UniProt P17861); type: functional, Cricetulus griseus;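 further: confirmatory dose-response counter-screen serving a CHOP assay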
Chain of X-box-binding protein 1 (P17861 whole entry): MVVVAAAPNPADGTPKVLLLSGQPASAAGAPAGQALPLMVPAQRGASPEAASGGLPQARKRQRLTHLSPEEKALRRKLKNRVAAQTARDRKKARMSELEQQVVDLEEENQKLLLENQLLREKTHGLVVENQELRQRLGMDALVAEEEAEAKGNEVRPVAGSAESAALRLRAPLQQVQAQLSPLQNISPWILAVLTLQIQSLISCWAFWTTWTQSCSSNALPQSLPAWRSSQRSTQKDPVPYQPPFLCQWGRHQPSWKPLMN

[5] = target: Integrin alpha-4 (Homo sapiens, UniProt P13612); test: VLA-4 integrin allosteric ligands, SAR follow-up, cell-based, LIBS antibody binding, flow cytometry (AID 488791); type: functional
Chain of Integrin alpha-4 (P13612 whole entry): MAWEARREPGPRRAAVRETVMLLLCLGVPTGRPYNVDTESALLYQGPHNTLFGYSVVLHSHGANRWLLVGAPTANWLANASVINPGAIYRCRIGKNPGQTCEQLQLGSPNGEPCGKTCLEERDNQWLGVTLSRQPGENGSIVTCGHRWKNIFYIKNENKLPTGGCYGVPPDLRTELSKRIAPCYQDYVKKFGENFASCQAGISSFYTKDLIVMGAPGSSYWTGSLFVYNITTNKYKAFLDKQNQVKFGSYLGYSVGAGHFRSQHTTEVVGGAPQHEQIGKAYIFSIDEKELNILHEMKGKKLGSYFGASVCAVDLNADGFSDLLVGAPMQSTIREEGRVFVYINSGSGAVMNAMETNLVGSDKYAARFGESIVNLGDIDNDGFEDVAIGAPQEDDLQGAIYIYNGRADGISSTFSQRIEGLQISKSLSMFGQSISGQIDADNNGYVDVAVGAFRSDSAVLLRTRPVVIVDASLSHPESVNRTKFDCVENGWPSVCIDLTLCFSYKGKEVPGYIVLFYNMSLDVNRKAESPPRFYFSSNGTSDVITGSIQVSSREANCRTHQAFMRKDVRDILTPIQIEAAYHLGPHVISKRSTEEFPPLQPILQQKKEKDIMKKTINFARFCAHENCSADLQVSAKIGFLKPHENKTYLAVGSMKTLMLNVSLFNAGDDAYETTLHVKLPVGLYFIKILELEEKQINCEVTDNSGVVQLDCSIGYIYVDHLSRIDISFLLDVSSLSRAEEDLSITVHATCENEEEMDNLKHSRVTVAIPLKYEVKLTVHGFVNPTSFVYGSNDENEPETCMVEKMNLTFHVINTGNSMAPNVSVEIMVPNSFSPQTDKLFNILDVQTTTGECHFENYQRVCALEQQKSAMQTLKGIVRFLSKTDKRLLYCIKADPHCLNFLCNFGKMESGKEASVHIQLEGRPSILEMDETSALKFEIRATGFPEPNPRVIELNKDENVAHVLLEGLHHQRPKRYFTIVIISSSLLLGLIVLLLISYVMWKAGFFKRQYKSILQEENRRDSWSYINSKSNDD

[6] = Luminescence Cell-Based Dose Response HTS to Identify Activators of Luciferase Translation or Activity in H4-C Neuroglioblastoma Cells. [Related pubchem assays: 1829 (Project Summary), 1814 (Primary HTS)]; type: functional
[7] = Luminescence Cell-Based Dose Retest to Confirm Activators of 5'UTR Stem-Loop Driven Alpha-Synuclein mRNA Translation in H4 Neuroglioblastoma Cells. [Related pubchem assays (depositor defined):AID1813, AID1829]; type: functional
[8] = Luminescence Cell-Based Dose Response HTS to Identify Activators of 5'UTR Stem-Loop Driven Prion Protein mRNA Translation in H4-C Neuroglioblastoma Cells. [Related pubchem assays: 1829 (Project Summary), 1814 (Primary HTS)]; type: functional
[9] = Luminescence Cell-Based Dose Confirmation HTS to Identify Activators of 5'UTR Stem-Loop Driven Alpha-Synuclein mRNA Translation in H4 Neuroglioblastoma Cells. [Related pubchem assays: 1829 (Project Summary), 1814 (Primary HTS)]; type: functional
[10] = Luminescence Cell-Based Dose Response HTS to Identify Activators of Luciferase Translation or Activity in H4 […] Cells. [Related pubchem assays: 1829 (Project Summary), 1814 (Primary HTS)]; type: functional
[11] = system: H4; test: Luminescence Cell-Based Dose Response HTS to Identify Activators of 5'UTR Stem-Loop Driven Prion Protein mRNA Translation in H4 Neuroglioblastoma Cells. [Related pubchem assays: 1829 (Project Summary), 1814 (Primary HTS)]; type: functional; details: Homo sapiens
[12] = target: T1, Mannose-6-phosphate isomerase (Homo sapiens, UniProt P34949); test: PMI enzyme inhibitors, confirmation, biochemical, fluorescence intensity (AID 1535)
T1 sequence (P34949 whole entry): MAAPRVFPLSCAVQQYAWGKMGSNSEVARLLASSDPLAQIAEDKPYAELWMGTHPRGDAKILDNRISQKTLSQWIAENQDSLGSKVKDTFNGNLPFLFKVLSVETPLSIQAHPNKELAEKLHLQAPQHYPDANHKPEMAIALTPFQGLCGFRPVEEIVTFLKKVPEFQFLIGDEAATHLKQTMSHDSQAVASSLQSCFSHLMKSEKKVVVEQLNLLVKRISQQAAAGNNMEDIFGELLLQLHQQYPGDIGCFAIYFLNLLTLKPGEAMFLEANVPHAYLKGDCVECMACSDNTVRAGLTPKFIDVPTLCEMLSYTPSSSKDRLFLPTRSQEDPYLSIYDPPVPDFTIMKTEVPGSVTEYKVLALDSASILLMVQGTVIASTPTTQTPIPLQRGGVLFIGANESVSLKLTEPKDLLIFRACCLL

[13] = target: Phosphomannomutase 2 (Homo sapiens, UniProt O15305); test: Counter screen SAR assay for PMM2 inhibitors via a fluorescence intensity assay. [Related pubchem assays (depositor defined):AID1545, AID1574]
Chain of Phosphomannomutase 2 (O15305 whole entry): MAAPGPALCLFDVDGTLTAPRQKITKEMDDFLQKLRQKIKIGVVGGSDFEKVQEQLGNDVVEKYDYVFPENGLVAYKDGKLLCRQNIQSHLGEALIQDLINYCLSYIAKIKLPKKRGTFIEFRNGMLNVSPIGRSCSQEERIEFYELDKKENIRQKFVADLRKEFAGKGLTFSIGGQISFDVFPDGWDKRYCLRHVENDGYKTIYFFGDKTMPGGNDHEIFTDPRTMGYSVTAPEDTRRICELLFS

[14] = target: Phosphoethanolamine/phosphocholine phosphatase (Homo sapiens, UniProt Q8TCT1); test: SAR assay for compounds that inhibit PHOSPHO1. [Related pubchem assays (depositor defined):AID1545, AID1565, AID1574]
Chain of Phosphoethanolamine/phosphocholine phosphatase (Q8TCT1 whole entry): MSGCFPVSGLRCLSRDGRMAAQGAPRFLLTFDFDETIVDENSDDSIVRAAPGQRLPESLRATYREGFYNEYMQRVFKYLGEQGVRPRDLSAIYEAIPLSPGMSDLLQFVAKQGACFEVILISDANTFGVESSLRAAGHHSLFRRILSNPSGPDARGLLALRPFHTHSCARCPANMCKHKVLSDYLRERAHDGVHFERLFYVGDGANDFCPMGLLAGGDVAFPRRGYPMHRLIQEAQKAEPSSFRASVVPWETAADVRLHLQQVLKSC

[15] = target: T2, Coagulation factor XII (Homo sapiens, UniProt P00748); test: FXIIa inhibitor potency, concentration-response, biochemical (AID 716); type: functional
T2 sequence (P00748 whole entry): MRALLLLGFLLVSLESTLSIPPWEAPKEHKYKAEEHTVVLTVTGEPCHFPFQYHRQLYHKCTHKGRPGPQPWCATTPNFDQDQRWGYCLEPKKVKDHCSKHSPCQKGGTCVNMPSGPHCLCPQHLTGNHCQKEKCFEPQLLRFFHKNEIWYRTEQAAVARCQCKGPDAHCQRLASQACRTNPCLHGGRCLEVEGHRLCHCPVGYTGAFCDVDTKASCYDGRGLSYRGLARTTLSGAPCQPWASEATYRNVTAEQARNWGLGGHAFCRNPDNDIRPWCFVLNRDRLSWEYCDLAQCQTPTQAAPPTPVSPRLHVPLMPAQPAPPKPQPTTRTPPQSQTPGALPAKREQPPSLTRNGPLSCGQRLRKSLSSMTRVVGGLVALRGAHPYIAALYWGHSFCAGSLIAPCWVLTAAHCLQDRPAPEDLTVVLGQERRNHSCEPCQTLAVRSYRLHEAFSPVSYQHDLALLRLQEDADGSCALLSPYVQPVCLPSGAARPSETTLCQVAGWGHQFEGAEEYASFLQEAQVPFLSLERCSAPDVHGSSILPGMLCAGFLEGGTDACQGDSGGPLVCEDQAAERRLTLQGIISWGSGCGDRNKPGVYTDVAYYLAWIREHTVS

[16] = target: T3, Alkaline phosphatase, tissue-nonspecific isozyme (Homo sapiens, UniProt P05186); test: human TNAP enzyme inhibitors, SAR follow-up, biochemical, luminescent, dose response (AID 1056)
T3 sequence (P05186 whole entry): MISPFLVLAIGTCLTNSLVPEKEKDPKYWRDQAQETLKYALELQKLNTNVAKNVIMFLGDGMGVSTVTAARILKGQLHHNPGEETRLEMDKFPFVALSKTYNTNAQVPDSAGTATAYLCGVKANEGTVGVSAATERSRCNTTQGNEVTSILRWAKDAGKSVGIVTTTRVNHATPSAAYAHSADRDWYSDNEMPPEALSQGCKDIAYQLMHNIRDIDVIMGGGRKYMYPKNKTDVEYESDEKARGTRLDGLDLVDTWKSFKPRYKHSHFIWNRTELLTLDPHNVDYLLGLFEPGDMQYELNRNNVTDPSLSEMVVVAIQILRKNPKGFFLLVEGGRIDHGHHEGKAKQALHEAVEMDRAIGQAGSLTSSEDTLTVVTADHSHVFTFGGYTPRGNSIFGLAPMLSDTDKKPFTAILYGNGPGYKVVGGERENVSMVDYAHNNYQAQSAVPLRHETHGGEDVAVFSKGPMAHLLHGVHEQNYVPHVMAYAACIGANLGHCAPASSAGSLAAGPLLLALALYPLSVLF

Chain of Cystic fibrosis transmembrane conductance regulator/Golgi-associated PDZ and coiled-coil motif-containing protein (P13569 whole entry, other chains not shown): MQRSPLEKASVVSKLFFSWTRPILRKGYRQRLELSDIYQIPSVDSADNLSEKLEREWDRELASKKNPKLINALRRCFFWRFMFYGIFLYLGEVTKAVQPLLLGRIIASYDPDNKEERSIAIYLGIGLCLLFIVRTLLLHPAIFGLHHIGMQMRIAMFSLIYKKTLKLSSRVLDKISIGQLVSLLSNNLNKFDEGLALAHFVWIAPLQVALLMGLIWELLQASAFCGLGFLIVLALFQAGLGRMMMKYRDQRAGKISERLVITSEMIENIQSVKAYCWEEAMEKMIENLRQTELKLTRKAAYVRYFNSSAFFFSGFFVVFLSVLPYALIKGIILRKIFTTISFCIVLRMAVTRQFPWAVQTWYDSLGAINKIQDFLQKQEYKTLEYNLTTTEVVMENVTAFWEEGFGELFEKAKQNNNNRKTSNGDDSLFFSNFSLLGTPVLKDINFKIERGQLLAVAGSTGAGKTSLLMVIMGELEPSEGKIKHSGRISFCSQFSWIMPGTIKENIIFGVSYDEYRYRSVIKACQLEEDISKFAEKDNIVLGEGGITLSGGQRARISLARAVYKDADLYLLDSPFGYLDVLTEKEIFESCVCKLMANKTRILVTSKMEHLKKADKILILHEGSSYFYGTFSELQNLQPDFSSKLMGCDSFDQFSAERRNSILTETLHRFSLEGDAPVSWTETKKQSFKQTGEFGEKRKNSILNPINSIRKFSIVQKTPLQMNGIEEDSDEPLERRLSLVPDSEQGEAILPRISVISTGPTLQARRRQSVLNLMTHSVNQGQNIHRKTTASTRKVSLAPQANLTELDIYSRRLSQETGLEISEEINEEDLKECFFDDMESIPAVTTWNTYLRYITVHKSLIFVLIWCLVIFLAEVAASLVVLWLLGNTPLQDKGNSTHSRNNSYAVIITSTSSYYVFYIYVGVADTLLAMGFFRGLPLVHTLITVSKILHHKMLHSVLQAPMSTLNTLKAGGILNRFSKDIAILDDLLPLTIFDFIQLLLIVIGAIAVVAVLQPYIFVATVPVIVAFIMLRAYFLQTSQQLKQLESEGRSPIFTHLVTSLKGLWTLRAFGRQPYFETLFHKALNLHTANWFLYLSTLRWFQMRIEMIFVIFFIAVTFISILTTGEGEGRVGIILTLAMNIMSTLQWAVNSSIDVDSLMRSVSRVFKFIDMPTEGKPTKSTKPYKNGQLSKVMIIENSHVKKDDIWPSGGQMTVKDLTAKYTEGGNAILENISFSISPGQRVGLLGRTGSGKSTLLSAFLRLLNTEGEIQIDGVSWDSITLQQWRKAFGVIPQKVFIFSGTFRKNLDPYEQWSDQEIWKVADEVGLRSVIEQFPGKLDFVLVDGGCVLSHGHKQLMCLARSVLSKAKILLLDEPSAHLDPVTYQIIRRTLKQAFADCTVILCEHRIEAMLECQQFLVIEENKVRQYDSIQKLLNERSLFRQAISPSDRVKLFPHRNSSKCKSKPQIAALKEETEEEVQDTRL

Structure (SMILES): O=C(c1ccccc1)C(c1ccccc1)c1ccccc1
- AC50 [1]: > 56 µM (inactive)

Structure (SMILES): C=CCCCCCCCCc1nnc(SCC(=O)O)[nH]1
- IC50 [2]: 0.553 µM (active)

Structure (SMILES): Cc1ccc(NC(=O)c2cc(NC(=O)c3ccco3)ccc2N2CCCCC2)cc1
- Absolute IC50 (CHOP) [3]: 10 µM
- Absolute IC50 (XBP1) [4]: 10 µM

Structure (SMILES): COC(=O)C1OC2(OC1C(=O)OC)c1ccccc1-c1ccccc12 (stereo unspecified)
- EC50 [5]: 7.14 µM (active)

Structure (SMILES): O=C1Nc2ccccc2S/C1=C\C(=O)N1CCCC1
- EC50 [6]: 13.2 µM (active)
- EC50 [7]: > 195 µM (inactive)
- EC50 [8]: 9.5 µM (active)
- EC50 [9]: 0.264 µM (active)
- EC50 [10]: 8.16 µM (active)
- EC50 [11]: > 120 µM (not active)

Structure (SMILES): Cc1ccc(C)c(-n2[se]c3ccccc3c2=O)c1
- IC50 [12]: 88 µM (active)
- IC50 [13]: > 100 µM (inactive)
- IC50 [14]: 36 µM (inactive)

Structure (SMILES): O=C(NCc1n[nH]c(=S)n1-c1ccccc1)c1ccco1
- IC50 [15]: > 50 µM (inactive)

Structure (SMILES): CC(C)NCC(=O)c1ccc(O)c(O)c1
- IC50 [16]: > 100 µM (inactive)

Reference: ChEMBL document CHEMBL1201862, “PubChem BioAssay data set” (2004)
